Experimental data from PubChem BioAssay AID256 (DTP/NCI, 2004).
Values joined by “and” are separate entries in the source; they are usually repeats but may differ in a detail not shown here. Identical values can stand only once. Inconclusive results and toxic doses are left out. The calls were made as follows: active = survival T/C of 150% or more; inactive = T/C below 125% in these data.

Tested on: CD2F1 mice, L1210 leukemia ip, survival T/C
Assay: NCI In Vivo Anticancer Drug Screen. Data for tumor model L1210 Leukemia (intraperitoneal) in CD2F1 (CDF1) mice
Conditions: endpoint: mean survival time, higher = longer survival
Summary of the method: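 Compound-dosed mice with transplantable tumor versus matched vehicle controls; endpoint ratio T/C reported.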

[1] = dose: 100.0 mg/kg/injection, schedule: Q01DX009 (ip), vehicle: saline with Tween-80
[2] = dose: 100.0 mg/kg/injection, schedule: Q04DX003 (ip), vehicle: saline sonified
[3] = dose: 200.0 mg/kg/injection, schedule: Q01DX009 (ip), vehicle: saline with Tween-80
[4] = dose: 200.0 mg/kg/injection, schedule: Q04DX003 (ip), vehicle: saline sonified
[5] = dose: 400.0 mg/kg/injection, schedule: Q04DX003 (ip), vehicle: saline sonified
[6] = dose: 100.0 mg/kg/injection, schedule: Q04DX003 (ip), vehicle: saline with Tween-80
[7] = dose: 200.0 mg/kg/injection, schedule: Q04DX003 (ip), vehicle: saline with Tween-80
[8] = dose: 400.0 mg/kg/injection, schedule: Q04DX003 (ip), vehicle: saline with Tween-80
[9] = dose: 12.5 mg/kg/injection, schedule: Q01DX009 (ip), vehicle: saline with Tween-80
[10] = dose: 75.0 mg/kg/injection, schedule: Q01DX001 (ip), vehicle: saline
[11] = dose: 100.0 mg/kg/injection, schedule: Q01DX001 (ip), vehicle: saline
[12] = dose: 25.0 mg/kg/injection, schedule: Q01DX009 (ip), vehicle: saline
[13] = dose: 50.0 mg/kg/injection, schedule: Q01DX009 (ip), vehicle: saline
[14] = dose: 100.0 mg/kg/injection, schedule: Q01DX009 (ip), vehicle: saline
[15] = dose: 100.0 mg/kg/injection, schedule: Q04DX003 (ip), vehicle: saline
[16] = dose: 200.0 mg/kg/injection, schedule: Q04DX003 (ip), vehicle: saline
[17] = dose: 400.0 mg/kg/injection, schedule: Q04DX003 (ip), vehicle: saline
[18] = dose: 150.0 mg/kg/injection, schedule: Q01DX001 (ip), vehicle: saline
[19] = dose: 100.0 mg/kg/injection, schedule: Q01DX001 (ip), vehicle: saline with Tween-80
[20] = dose: 200.0 mg/kg/injection, schedule: Q01DX001 (ip), vehicle: saline with Tween-80
[21] = dose: 400.0 mg/kg/injection, schedule: Q01DX001 (ip), vehicle: saline with Tween-80

Measured: T/C

C#CC(CC(C)CC(C)(C)C)N(C)C (stereo not drawn)
inactive: [1] 98 % of control

C(=Nc1ccccc1)c1ccccc1C=Nc1ccccc1
inactive: [1] 94 % of control | [2] 100 % of control | [3] 92 % of control | [4] 100 % of control | dose: 400.0 mg/kg/injection, schedule: Q01DX009 (ip), vehicle: saline with Tween-80 94 % of control | [5] 102 % of control

Cc1cc2c3ccccc3nc(C(F)(F)F)n2n1
inactive: [2] 96 % of control | [4] 100 % of control | [5] 100 % of control

c1ccc(C2CC([P+](c3ccccc3)(c3ccccc3)c3ccccc3)=NN2CC[P+](c2ccccc2)(c2ccccc2)c2ccccc2)cc1 (stereo not drawn)
inactive: dose: 1.56 mg/kg/injection, schedule: Q04DX003 (ip), vehicle: saline with Tween-80 101 % of control | dose: 3.13 mg/kg/injection, schedule: Q04DX003 (ip), vehicle: saline with Tween-80 96 % of control | dose: 6.25 mg/kg/injection, schedule: Q04DX003 (ip), vehicle: saline with Tween-80 93 % of control

CCCCCC(O)CCCCC
inactive: [6] 98 % of control | [7] 94 % of control | [8] 98 % of control

Nc1nc(-c2ccc([N+](=O)[O-])cc2)c([N+](=O)[O-])c(=O)[nH]1
inactive: dose: 3.13 mg/kg/injection, schedule: Q01DX009 (ip), vehicle: saline with Tween-80 96 % of control | dose: 6.25 mg/kg/injection, schedule: Q01DX009 (ip), vehicle: saline with Tween-80 95 % of control | dose: 12.5 mg/kg/injection, schedule: Q01DX001 (ip), vehicle: saline with Tween-80 94 % of control | [9] 95 % of control

CC(C)N1CCc2cc3c(cc2C1)OCO3
inactive: [10] 100 % of control | [11] 100 % of control

CCCCCn1c(C)cc(/C=C\c2ccc3cc(C)ccc3[n+]2C)c1C
inactive: dose: 0.62 mg/kg/injection, schedule: Q01DX009 (ip), vehicle: Klucel (hydroxypropylcellulose) (HPC) 101 % of control | dose: 0.63 mg/kg/injection, schedule: Q01DX009 (ip), vehicle: Klucel (hydroxypropylcellulose) (HPC) 106 % of control | dose: 1.25 mg/kg/injection, schedule: Q01DX009 (ip), vehicle: Klucel (hydroxypropylcellulose) (HPC) 114 % of control and 107 % of control

CCOc1ccc(/C=C/[N+](=O)[O-])cc1
inactive: [1] 114 % of control | [6] 104 % of control | [3] 89 % of control | [7] 98 % of control | [8] 111 % of control

NC(=S)c1cc(C(N)=S)[nH]n1
inactive: dose: 6.25 mg/kg/injection, schedule: Q01DX005 (ip), vehicle: other 101 % of control | dose: 12.5 mg/kg/injection, schedule: Q01DX005 (ip), vehicle: other 97 % of control | dose: 25.0 mg/kg/injection, schedule: Q01DX005 (ip), vehicle: other 93 % of control | dose: 50.0 mg/kg/injection, schedule: Q01DX005 (ip), vehicle: other 95 % of control

CN=NCCO
inactive: [12] 104 % of control | [13] 96 % of control | [11] 94 % of control | [14] 100 % of control | dose: 200.0 mg/kg/injection, schedule: Q01DX001 (ip), vehicle: saline 94 % of control

O=S(O)OS(=O)O
inactive: dose: 37.5 mg/kg/injection, schedule: Q01DX009 (ip), vehicle: saline 89 % of control | dose: 75.0 mg/kg/injection, schedule: Q01DX009 (ip), vehicle: saline 91 % of control | [15] 101 % of control | dose: 150.0 mg/kg/injection, schedule: Q01DX009 (ip), vehicle: saline 93 % of control | [16] 101 % of control | dose: 300.0 mg/kg/injection, schedule: Q01DX009 (ip), vehicle: saline 91 % of control | [17] 96 % of control

OCCC(c1ccccc1)C1CCCCN1 (stereo not drawn)
inactive: [10] 101 % of control | [18] 100 % of control

Cc1ccc(C(O)S(=O)(=O)O)cc1 (stereo not drawn)
inactive: [6] 119 % of control | [7] 103 % of control | [8] 115 % of control

O=C/C=C/c1ccc([N+](=O)[O-])cc1
inactive: dose: 100.0 mg/kg/injection, schedule: Q04DX003 (ip), vehicle: Klucel (hydroxypropylcellulose) (HPC) 90 % of control | dose: 200.0 mg/kg/injection, schedule: Q04DX003 (ip), vehicle: Klucel (hydroxypropylcellulose) (HPC) 90 % of control

CC(=O)Oc1cccc(C(C)=O)c1
inactive: [6] 102 % of control | [7] 100 % of control | [8] 104 % of control

Cc1sc(C)c(CCl)c1CCl
inactive: [9] 104 % of control | dose: 25.0 mg/kg/injection, schedule: Q01DX009 (ip), vehicle: saline with Tween-80 108 % of control | dose: 50.0 mg/kg/injection, schedule: Q01DX009 (ip), vehicle: saline with Tween-80 98 % of control

O=C(O)CCC1CC(=O)OC12CCCCC2 (stereo not drawn)
inactive: [19] 96 % of control | [20] 96 % of control | [21] 91 % of control

CC(=O)C(CCN(C)C)(c1ccccc1)c1ccccc1
inactive: [10] 102 % of control | [18] 91 % of control

O=c1cc(NCCCCCc2ccccc2)[nH]c(=O)[nH]1
inactive: dose: 37.5 mg/kg/injection, schedule: Q01DX001 (ip), vehicle: saline with Tween-80 96 % of control | dose: 75.0 mg/kg/injection, schedule: Q01DX001 (ip), vehicle: saline with Tween-80 100 % of control | dose: 150.0 mg/kg/injection, schedule: Q01DX001 (ip), vehicle: saline with Tween-80 96 % of control

CC(C)N1CCSC1=S
inactive: dose: 25.0 mg/kg/injection, schedule: Q01DX009 (ip), vehicle: saline sonified 101 % of control | dose: 50.0 mg/kg/injection, schedule: Q01DX009 (ip), vehicle: saline sonified 98 % of control | dose: 100.0 mg/kg/injection, schedule: Q01DX009 (ip), vehicle: saline sonified 106 % of control | [6] 100 % of control | dose: 200.0 mg/kg/injection, schedule: Q01DX009 (ip), vehicle: saline sonified 88 % of control | [7] 99 % of control | [8] 97 % of control

Clc1ccc2scc3c4ccccc4nc-3c2c1
inactive: [12] 104 % of control | [13] 101 % of control

Cc1nc(N)[nH]c(=O)c1-n1nnc2ccccc2c1=O
inactive: [19] 92 % of control | [20] 87 % of control | [21] 89 % of control

Cc1ccc(S(=O)(=O)/C=C(/I)C(=O)c2ccccc2)cc1
inactive: [14] 90 % of control | [15] 100 % of control | dose: 200.0 mg/kg/injection, schedule: Q01DX009 (ip), vehicle: saline 93 % of control | [16] 96 % of control | dose: 400.0 mg/kg/injection, schedule: Q01DX009 (ip), vehicle: saline 88 % of control | [17] 108 % of control

COc1ccc(COC(=O)Nc2ccc(Cl)cc2)cc1
inactive: dose: 50.0 mg/kg/injection, schedule: Q04DX002 (ip), vehicle: saline with Tween-80 104 % of control | dose: 100.0 mg/kg/injection, schedule: Q04DX002 (ip), vehicle: saline with Tween-80 100 % of control | dose: 200.0 mg/kg/injection, schedule: Q04DX002 (ip), vehicle: saline with Tween-80 92 % of control
